Reference: patent publication US12017975B2, “Myc-Max inhibitor compound therapeutics for cancer treatment, methods and uses associated therewith” (THE UNIVERSITY OF BRITISH COLUMBIA, priority 2018, dated 2024)
Read-outs that look alike come from different tables or passages of the source.

Experiments:
[1] = tested on: Myc-Max/UBE2C downstream pathway; assay: UBE2C promoter luciferase reporter assay in 22rv1 cells; format: cell-based; details: Homo sapiens, 25 μM
Description: (§1) Cell transfection was performed using TransIT-2020™ transfection reagents according to the manufacturer's instructions (Mirus™). LNCaP cells were plated at 10000 cells per well and treated for 1 day with the indicated concentration of compound. Myc reporter activity was measured using the Cignal Myc Reporter Assay Kit™ from Qiagen™ (#336841) according to the manufacturer's instructions. For the UBE2C reporter assay, 22rv1 cells were plated at 10000 cells per well in 96-well plates in RPMI media supplemented with 5% charcoal-stripped serum (CSS) and treated for 1 day with 1 μM, 10 μM and 25 μM of compound.
Myc inhibition was recently reported to reduce levels of the constitutively active androgen receptor splice variant AR-V7 in 22rv1 cells. […] The dose-dependent reduction of luciferase levels by the identified hits indicates a Myc-related reduction of AR-V7 level in the cells (see TABLE 1). […] The AR-V7 reduction with the hits was confirmed by Western blot (FIG. 2B).

Myc-Max complex = molecular target: T1, Myc-Max complex (Homo sapiens, UniProt P01106+P61244); assay: Biolayer interferometry of Myc-Max binding to biotinylated E-box DNA; details: TABLE 2
T1 construct: GST tagged Myc (residues 368-454); Histidine tagged Max (residues 23-102); made in house; host or cells: E. coli BL21-DE3
Description: Histidine tagged Max (residues 23-102) and GST tagged Myc (residues 368-454) were overexpressed in E. coli BL21-DE3 cells. Cells were co-lyzed in lysis buffer (20 mM Tris pH 8, 500 mM NaCl, 5% glycerol, 10 mM imidazole, 8 mM BME, 2.1 mM PMSF). After sonication and centrifugation, the complex was first purified by using a Ni-NTA affinity resin. After overnight dialysis to remove the imidazole, the protein sample was applied to a size exclusion chromatography equilibrated with (20 mM Tris pH 8, 150 mM NaCl, 5% glycerol, 0.2 mM TCEP). Fractions containing equal amount of Myc and Max on SDS PAGE were collected and used for the binding assay. The presence of both proteins was validated by Western blot using a specific antibody of each protein (Max (h2) Sc-8011 and c-Myc (9E10) Sc-40, Santa Cruz Biotechnology™)
The direct interaction between biotinylated E-box oligo ([…]) immobilized on a streptavidin biosensor and a purified Myc-Max complex (0.05 mg/ml) was quantified by BLI using OctetRED (ForteBio™). The DNA was first bound to the super-streptavidin sensors over 1000 sec at 25° C. The sensors were next moved into wells containing the reaction buffer (20 mM Tris pH 8, 150 mM NaCl, 5% glycerol, 0.2 mM TCEP, 5% dimethylsulfoxide) for measuring the baseline and next into the Myc-Max complex alone or in presence of the tested inhibitors to study the association of the complex to the DNA.
Direct Binding and disruption of protein-DNA interaction. To study the direct effect of our hit compounds VPC-70063 and VPC-70067 on the interaction between Myc-Max heterodimer and the DNA, we used Bio-Layer Interferometry (BLI, ForteBio™). This technique is a label-free technology allowing the measurement of direct interactions between two partners, one immobilized on a sensor and the other one present in a solution. We applied this technology to study the disruption of the interaction between a biotinylated E-box oligo immobilized on a streptavidin biosensor and a purified Myc-Max complex in presence of our compounds. Therefore, histidine-tagged Max (residues 23-102) and GST tagged Myc (residues 368-454) were overexpressed and co-purified. The fraction containing equal amount of Myc and Max was collected and used for the binding assay (FIG. 3B). The presence of both proteins was validated by Western blot using a specific antibody of each protein. […] Additionally, we tested the ability of our best compound VPC-70063 to disrupt the interaction of MYC/MAX with DNA in a dose dependent manner.

LNCaP cells = assay: PARP cleavage (apoptosis) by Western blot in LNCaP cells; format: cell-based; details: TABLE 2, LNCaP cells
Description: After 48 hours of treatment with Myc compounds, LNCaP cells were lysed, and protein sample preparation followed by Western blotting were performed. Blots were incubated with primary antibodies against c-Myc, PARP (Sigma™ 084M4766V), PARP cleaved-Asp214 (Sigma™ SAB4500487) and β-Actin (Sigma™ A2066) overnight at 4° C., followed by appropriate peroxidase-conjugated secondary antibodies. β-actin served as an internal control. Visualization of the immunocomplexes was done by an enhanced chemiluminescence detection system (Millipore™) followed by exposure to X-ray films.
Apoptosis. Myc inhibition induces cell death by cell cycle arrest and apoptosis. Cleavage of PARP-1 by caspases is considered a hallmark of apoptosis and so we measured the ability of compounds to induce PARP cleavage after treatment.

[2] = tested on: Myc-Max transcriptional activity; assay: Cignal c-Myc luciferase reporter assay in LNCaP cells; format: cell-based; details: for inhibition at 25 µM / IC50 / inhibition at 5 µM / inhibition at 10 µM / inhibition at 12.5 µM: Homo sapiens, LNCaP
Description: as §1
Compounds were subjected to experimental evaluation using the commercially available transcriptional assay Cignal c-Myc luciferase reporter assay in LNCaP cells. […] A transiently transfected Myc-driven luciferase reporter allowed the monitoring of Myc-regulated signal in LNCaP upon treatment with the in silico identified compounds.

HO15.19 cells = assay: Cell viability of Myc negative (c-Myc knockout) HO15.19 cells; format: cell-based; details: Rattus norvegicus, HO15.19; read-out: % inhibition Myc K.O cells (12 uM)
Description: LNCaP were plated at 5000 cells per well in RPMI 1640 containing 5% CSS in a 96-well plate, treated with test compounds (0-25 μM) for 96 hours. Cell density was measured using the PrestoBlue™ assay according to the manufacturer's protocol. The percentage of cell survival was normalized to the cell density of control wells treated by vehicle. Viability of Myc-negative […] cells was done similarly but in DMEM supplemented with 5% CSS.
The effect of hit compounds on Myc-driven cell proliferation was evaluated by measuring the cell viability of LNCaP cells after treatment with increasing concentrations of compounds.

[3] = 25 μM, TABLE 3, read-out: % Inhibition 25 μM
[4] = 24 h, 25 μM, LNCaP cells, TABLE 1, read-out: Myc-Max transcriptional activity % inhibition (25 μM)
[5] = TABLE 2, assay not named, values match Myc-Max transcriptional activity, read-out: IC50

T1 sequence (P01106 368-454): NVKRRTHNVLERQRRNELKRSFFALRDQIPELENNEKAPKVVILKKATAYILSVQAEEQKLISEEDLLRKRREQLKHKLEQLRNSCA
T1 sequence (P61244 23-102): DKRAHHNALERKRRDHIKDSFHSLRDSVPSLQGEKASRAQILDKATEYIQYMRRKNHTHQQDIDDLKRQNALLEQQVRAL

SMILES | inhibition at 25 µM [2, 3] [%] | inhibition at 5 µM ([2]; 5 μM, TABLE 3) [%] | inhibition at 10 µM ([2]; 10 μM, TABLE 3) [%] | other results
CC(=O)Nc1ccc(Nc2cc(Cl)c(C(F)(F)F)cc2[N+](=O)[O-])cc1 [VPC-70033] | 81 |  |  | inhibition at 25 µM [1]: 51%; BLI binding (Myc-Max complex): weak; PARP effect (LNCaP cells): nil; inhibition at 25 µM [2, 4]: 81%; IC50 [2, 5]: 10 µM
S=C(NCc1ccc(Cl)c(Cl)c1)Nc1cccnc1 [VPC-70053] | 73 |  |  | inhibition at 25 µM [1]: 50%; inhibition at 25 µM [2, 4]: 73%; IC50 [2, 5]: 11 µM
CN1C(=O)/C(=C\C=C\c2ccco2)SC1=S [VPC-70064] |  |  |  | inhibition at 25 µM [1]: 64%; inhibition at 25 µM ([2]; 25 μM, TABLE 4, read-out: % Inhibition (25 μM)): 78%; inhibition at 25 µM [2, 4]: 78%
CC(C)(C)[C@H]1CCc2sc(C(=O)N3CCC(C(N)=O)CC3)cc2C1 [VPC-70068] | 73 |  |  | inhibition at 25 µM [1]: 58%; PARP effect (LNCaP cells): average; inhibition at 25 µM [2, 4]: 73%
S=C(NCc1ccncc1)Nc1cc(Cl)cc(Cl)c1 [VPC-70084] | 80 |  |  | PARP effect (LNCaP cells): weak; IC50 [2, 5]: 20 µM
O=C(NCc1cnn(Cc2ccccc2)c1)[C@@H]1COc2ccccc2O1 [VPC-70215] | 101 |  |  | PARP effect (LNCaP cells): weak; IC50 [2, 5]: 20 µM; inhibition at 12 µM (HO15.19 cells): 29%
O=C(CCc1c[nH]c2ccccc12)Nc1nc2ccccc2[nH]1 [VPC-70223] | 103 |  |  | IC50 [2, 5]: 10 µM; inhibition at 12 µM (HO15.19 cells): 40%
CC(C)C[C@H](NC(=O)C(Cc1ccccc1)NC(=O)CNC(=O)[C@H](C)NC(=O)[C@@H](N)Cc1ccc(O)cc1)C(=O)OCc1ccccc1 (stereo partly shown) [VPC-70413] |  |  |  | BLI binding (Myc-Max complex): weak; PARP effect (LNCaP cells): weak; IC50 [2]: 15 µM; inhibition at 25 µM ([2]; read-out: % Inhibition 25 μM): 114%
Fc1ccccc1CNC(=S)Nc1cccc(C(F)(F)F)c1 [VPC-70483] |  |  |  | % Inhibition 5 μM ([2]; 5 μM, TABLE 3): 31%; % Inhibition 10 μM ([2]; 10 μM, TABLE 3): 38%; % Inhibition 25 μM ([2]; 25 μM, TABLE 3): 79%
CS(=O)(O)=Nc1cccc(NC(=S)NCc2cccc(C(F)(F)F)c2)c1 [VPC-70487] | 79 | 34 | 42 | 
C=C(C)COc1cccc(NC(=S)NCc2cccc(C(F)(F)F)c2)c1 [VPC-70489] | 99 | 38 | 86 | 
FC(F)(F)c1cc(Br)cc(NC(=S)NCc2cccs2)c1 [VPC-70495] | 100 | 107 | 80 | IC50 [2, 5]: 5 µM
S=C(NCc1cccnc1)Nc1cc(Cl)cc(Cl)c1 [VPC-70496] | 96 | 22 | 95 | 
S=C(NCc1ccccc1)Nc1cc(Cl)cc(Cl)c1 [VPC-70498] | 100 | 36 | 106 | 
COC(=O)c1cc(NC(=S)NCc2ccccc2)cc(Cl)c1F [VPC-70501] | 90 | 34 | 37 | 
C[C@@H]1CN(Cc2ccc(CNC(=S)Nc3cccc(C(F)(F)F)c3)cc2)C[C@@H](C)O1 [VPC-70506] | 89 | 73 | 66 | 
O=C(Nc1cccc(C(F)(F)F)c1)Nc1cccc(C(F)(F)F)c1 [VPC-70511] | 102 | 108 | 112 | IC50 [2, 5]: 2 µM

SMILES | inhibition at 25 µM [2, 3] [%] | inhibition at 5 µM ([2]; 5 μM, TABLE 3) [%] | inhibition at 10 µM ([2]; 10 μM, TABLE 3) [%] | other results
FC(F)(F)c1cccc(NC(=S)Nc2ccc(Cl)c(C(F)(F)F)c2)c1 [VPC-70514] | 102 | 109 | 110 | 
FC(F)Oc1ccc(CNC(=S)Nc2cccc(C(F)(F)F)c2)cc1 [VPC-70523] | 102 | -4 | 104 | 
S=C(NCc1ccc(Cl)nc1)Nc1cccc(Cl)c1 [VPC-70524] | 102 | 22 | 4 | 
NS(=O)(=O)c1cc(F)cc(NC(=S)NCc2ccccc2)c1 [VPC-70525] | 102 | 40 | 35 | 
S=C(NCc1ccccc1)Nc1cccc(COc2ccccc2)c1 [VPC-70526] | 94 | 41 | 62 | 
O=C(NCCc1ccccc1)C(=O)Nc1cc(C(F)(F)F)cc(C(F)(F)F)c1 [VPC-70527] | 92 | 38 | 43 | 
CC(C)(C)CNC(=S)Nc1cccc(C(F)(F)F)c1 [VPC-70529] | 94 | 14 | 52 | 
Cc1c(Cl)cc(NC(=S)NCc2ccccc2)cc1Cl [VPC-70530] |  |  |  | inhibition at 12.5 µM ([2]; TABLE 3): 94%
NC(=O)NCc1ccc(NC(=S)NCc2ccccc2)cc1 [VPC-70531] | 81 | 0 | 27 | inhibition at 12.5 µM ([2]; TABLE 3): 47%
Fc1ccc(NC(=S)NCc2ccccc2)cc1C(F)(F)F [VPC-70532] |  |  |  | inhibition at 12.5 µM ([2]; TABLE 3): 101%
FC(F)(F)c1cccc(NC(=S)NCc2ccccc2C(F)(F)F)c1 [VPC-70535] |  |  |  | inhibition at 12.5 µM ([2]; TABLE 3): 95%
O=C(NCCNS(=O)(=O)c1ccccc1)NNC(=O)c1cccc(C(F)(F)F)c1 [VPC-70549] |  |  |  | inhibition at 12.5 µM ([2]; TABLE 3): 75%
N#Cc1ccc(NNC(=O)c2ccc(C(F)(F)F)cc2)c(C(F)(F)F)c1 [VPC-70551] |  |  |  | inhibition at 10 µM ([2]; 10 μM, TABLE 6): 91%; IC50 ([2]; TABLE 6 footnote, assay not named, read-out: IC50): 4 µM
O=C(CCNC(=O)c1cccc(C(F)(F)F)c1)NCc1ccccc1 [VPC-70554] |  |  |  | inhibition at 12.5 µM ([2]; TABLE 3): 71%
CC(C)(O)c1ccc(CNC(=S)NCc2cccc(C(F)(F)F)c2)cc1 [VPC-70561] |  |  |  | inhibition at 12.5 µM ([2]; TABLE 3): 95%
Cc1cc(NC(=S)NCc2ccon2)cc(C(F)(F)F)c1 [VPC-70564] |  |  |  | inhibition at 12.5 µM ([2]; TABLE 3): 73%
